Patent US20240116985A1, “STAPLED PEPTIDES AND METHODS THEREOF” (priority 2020, published 2024)
Where two headings read alike, the source gives them in different places.

Assays:
[1] = target: T1, full-length beta-Catenin (Uniprot ID P35222) (Homo sapiens, UniProt P35222); test: Fluorescence polarization IC50 (beta-catenin / 5FAM-TCF4 10-53 competition); type: binding; details: read-out: beta-Catenin FP IC50
T1 construct: 10 nM full-length beta-Catenin (Uniprot ID P35222)
T1 sequence (P35222 1-781): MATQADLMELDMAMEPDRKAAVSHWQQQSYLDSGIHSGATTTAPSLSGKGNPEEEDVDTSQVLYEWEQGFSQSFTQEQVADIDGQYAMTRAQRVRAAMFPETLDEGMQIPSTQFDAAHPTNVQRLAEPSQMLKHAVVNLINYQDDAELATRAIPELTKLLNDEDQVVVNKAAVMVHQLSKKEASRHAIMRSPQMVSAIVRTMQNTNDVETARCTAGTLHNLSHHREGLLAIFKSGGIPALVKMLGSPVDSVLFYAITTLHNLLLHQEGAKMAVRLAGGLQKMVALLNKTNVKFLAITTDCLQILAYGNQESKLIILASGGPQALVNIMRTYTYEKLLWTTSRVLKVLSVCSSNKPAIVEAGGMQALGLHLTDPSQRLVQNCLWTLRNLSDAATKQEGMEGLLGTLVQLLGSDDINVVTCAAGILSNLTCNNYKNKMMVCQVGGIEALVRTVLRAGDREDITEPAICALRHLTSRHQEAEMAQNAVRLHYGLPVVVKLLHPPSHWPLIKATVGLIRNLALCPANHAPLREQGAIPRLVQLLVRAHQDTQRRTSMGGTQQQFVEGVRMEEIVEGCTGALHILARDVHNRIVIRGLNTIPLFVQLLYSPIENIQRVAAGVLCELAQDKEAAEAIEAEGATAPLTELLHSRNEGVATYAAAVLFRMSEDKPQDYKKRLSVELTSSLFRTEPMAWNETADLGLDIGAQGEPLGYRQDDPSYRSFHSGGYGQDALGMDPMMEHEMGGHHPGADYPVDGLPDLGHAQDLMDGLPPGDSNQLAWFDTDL

[2] = target: T2, beta-catenin/TCF4 engagement (Homo sapiens, UniProt P35222); test: Nano-BRET target engagement assay (B-cat-Halo & TCF4-Luc in HEK293 cells); type: cell-based; details: read-out: NanoBRET Abs IC50
T2 construct: expressed in transfected cells; host or cells: HEK293
T2 sequence (P35222 1-781): T1 sequence (P35222 1-781)

`CC(=O)N1CCC[C@]12CC=CCCCC1(CCCC=CCCCOC(=O)N3CC[C@@](C(=O)N[C@@H](Cc4ccsc4)C(=O)N[C@@H](Cc4csc5ccccc45)C(=O)N[C@@H](CCC(N)=O)C(N)=O)(C3)NC(=O)[C@H](CC(C)C)NC(=O)[C@H](Cc3ccccc3)NC(=O)[C@H](CCN3CCOCC3)NC(=O)[C@H](C)NC(=O)[C@H](CC(=O)O)NC(=O)[C@H](CC(=O)O)NC1=O)NC(=O)[C@H](CC(C)(C)C)NC(=O)[C@H](CC(=O)O)NC2=O` (stereo partly drawn) [I-1504, Ac-PL3-Asp-Npg-B5-Asp-Asp-Ala-MorphAbu-Phe-Leu-PyrS2-3Thi-BztA-Gln-NH2] was tested, and the IC50 ([1]; fluorescence polarization) was 46 nM and the IC50 ([2]; absolute IC50) was greater than 20000 nM.
`CC(=O)N1CCC[C@]12CC=CCCCC1(CCCC=CCCCOC(=O)N3CC[C@@](C(=O)N[C@@H](Cc4ccsc4)C(=O)N[C@@H](Cc4csc5ccccc45)C(=O)N[C@@H](CCC(N)=O)C(N)=O)(C3)NC(=O)[C@H](CC(N)=O)NC(=O)[C@H](Cc3ccccc3)NC(=O)[C@H](C)NC(=O)[C@H](C)NC(=O)[C@H](Cc3c(F)c(F)c(F)c(F)c3F)NC(=O)[C@H](CC(=O)O)NC1=O)NC(=O)[C@H](CC(C)(C)C)NC(=O)[C@H](CC(=O)O)NC2=O` (stereo partly drawn) [I-1790, Ac-PL3-Asp-Npg-B5-Asp-Pff-Ala-Ala-Phe-Asn-PyrS2-3Thi-BztA-Gln-NH2] was tested, and the IC50 ([1]; fluorescence polarization) was 82 nM and the IC50 ([2]; absolute IC50) was 34400 nM.
For `CC(=O)N1CCC[C@]12CC=CCCCC1(CCCC=CCCCOC(=O)N3CC[C@@](C(=O)N[C@@H](Cc4ccsc4)C(=O)N[C@@H](Cc4csc5ccccc45)C(=O)N[C@H](C(N)=O)C(C)C)(C3)NC(=O)[C@H](CC(C)C)NC(=O)[C@H](Cc3ccccc3)NC(=O)[C@H](C)NC(=O)[C@H](CO)NC(=O)[C@H](Cc3cccc(C(=O)O)c3)NC(=O)[C@H](CC(=O)O)NC1=O)NC(=O)[C@H](CC(C)(C)C)NC(=O)[C@H](CC(=O)O)NC2=O` (stereo partly drawn) [I-2190, Ac-PL3-Asp-Npg-B5-Asp-3COOHF-Ser-Ala-Phe-Leu-PyrS2-3Thi-BztA-Val-NH2], the IC50 ([1]; fluorescence polarization) was 28 nM and the IC50 [2] was 33400 nM.
For `CC(=O)N1CCC[C@]12CC=CCCCC1(CCCC=CCCCOC(=O)N3CC[C@@](C(=O)N[C@@H](Cc4ccccc4)C(=O)N[C@@H](Cc4csc5ccccc45)C(=O)N[C@@H](CCC(N)=O)C(N)=O)(C3)NC(=O)[C@H](CC(C)C)NC(=O)[C@H](Cc3ccccc3)NC(=O)[C@H](C)NC(=O)[C@H](CCCCNC(C)C)NC(=O)[C@H]([C@@H](C)O)NC(=O)[C@H](CC(=O)O)NC1=O)NC(=O)[C@H](CC1CCCCC1)NC(=O)[C@H](CC(N)=O)NC2=O` (stereo partly drawn) [I-2448, Ac-PL3-Asn-Cha-B5-Asp-Thr-iPrLys-Ala-Phe-Leu-PyrS2-Phe-BztA-Gln-NH2], the IC50 ([1]; fluorescence polarization) was 84 nM and the IC50 ([2]; absolute IC50) was greater than 20000 nM.
Compound `CC(=O)N1CCC[C@]12CC=CCCCC1(CCCC=CCCCOC(=O)N3CC[C@@](C(=O)N[C@@H](Cc4ccccc4C(F)(F)F)C(=O)N[C@@H](Cc4csc5ccccc45)C(=O)N[C@@H](CCC(N)=O)C(N)=O)(C3)NC(=O)[C@H](Cc3ccccc3)NC(=O)[C@H](Cc3ccccc3)NC(=O)[C@H](C)NC(=O)[C@H](C)NC(=O)[C@H](Cc3ccccc3C(=O)O)NC(=O)[C@H](CC(=O)O)NC1=O)NC(=O)[C@H](CC(C)(C)C)NC(=O)[C@H](CC(=O)O)NC2=O` (stereo partly drawn) [I-1655, Ac-PL3-Asp-Npg-B5-Asp-2COOHF-Ala-Ala-Phe-Phe-PyrS2-2F3MeF-BztA-Gln-NH2] has an IC50 ([1]; fluorescence polarization) of 48 nM and an IC50 ([2]; absolute IC50) of 12700 nM.
`CC(=O)N1CCC[C@]12CC=CCCCC1(CCCC=CCCCOC(=O)N3CC[C@@](C(=O)N[C@@H](Cc4ccsc4)C(=O)N[C@@H](Cc4csc5ccccc45)C(=O)NC(CCCCNC(=O)c4ccc5c(c4)B(O)OC5)C(N)=O)(C3)NC(=O)[C@H](CC(C)C)NC(=O)[C@H](Cc3ccccc3)NC(=O)[C@H](C)NC(=O)[C@H](C)NC(=O)[C@H](CN(CC(=O)O)CC(F)(F)F)NC(=O)[C@H](CC(=O)O)NC1=O)NC(=O)[C@H](CC(C)(C)C)NC(=O)[C@H](CC(=O)O)NC2=O` (stereo partly drawn) [I-2187, Ac-PL3-Asp-Npg-B5-Asp-TfeGA-Ala-Ala-Phe-Leu-PyrS2-3Thi-BztA-BnBoroleK-NH2] was tested, and the IC50 [1] was 28 nM and the IC50 [2] was 10800 nM.
With `CC(=O)N1CCC[C@]12CC=CCCCC1(CCCC=CCCCOC(=O)N3CC[C@@](C(=O)N[C@@H](Cc4ccsc4)C(=O)N[C@@H](Cc4ccc(Cl)c(Cl)c4)C(=O)N[C@@H](CCC(N)=O)C(N)=O)(C3)NC(=O)[C@H](CC(N)=O)NC(=O)[C@H](Cc3ccccc3)NC(=O)[C@H](C)NC(=O)C(C)(C)NC(=O)[C@H]([C@@H](C)O)NC(=O)[C@H](CC(N)=O)NC1=O)NC(=O)[C@H](CC(C)(C)C)NC(=O)[C@H](CC(=O)O)NC2=O` (stereo partly drawn) [I-2417, Ac-PL3-Asp-Npg-B5-Asn-Thr-Aib-Ala-Phe-Asn-PyrS2-3Thi-34C1F-Gln-NH2] the IC50 ([1]; fluorescence polarization) was 158 nM and the IC50 ([2]; absolute IC50) was 21600 nM.
With `CC(=O)N1CCC[C@]12CC=CCCCC1(CCCC=CCCCOC(=O)N3CC[C@@](C(=O)N[C@@H](Cc4ccsc4)C(=O)N[C@@H](Cc4csc5ccccc45)C(=O)N[C@@H](CCC(N)=O)C(=O)N[C@H](CO)Cc4ccccc4)(C3)NC(=O)[C@H](CC(C)C)NC(=O)[C@H](Cc3ccccc3)NC(=O)[C@H](C)NC(=O)[C@H](C)NC(=O)[C@H](CN(CC(=O)O)CC(F)(F)F)NC(=O)[C@H](CC(=O)O)NC1=O)NC(=O)[C@H](CC(C)(C)C)NC(=O)[C@H](CC(=O)O)NC2=O` (stereo partly drawn) [I-1680, Ac-PL3-Asp-Npg-B5-Asp-TfeGA-Ala-Ala-Phe-Leu-PyrS2-3Thi-BztA-Gln-Pheo1] the IC50 ([1]; fluorescence polarization) was 80.5 nM and the IC50 ([2]; absolute IC50) was 12500 nM.
`CC(=O)N1CCC[C@]12CC=CCCCC1(CCCC=CCCCOC(=O)N3CC[C@@](C(=O)N[C@@H](Cc4cccc(C(N)=O)c4)C(=O)N[C@@H](Cc4csc5ccccc45)C(=O)N[C@@H](CCO)C(N)=O)(C3)NC(=O)[C@H](CC(N)=O)NC(=O)[C@H](Cc3ccccc3)NC(=O)[C@H](C)NC(=O)[C@H](CCCCNC(C)C)NC(=O)[C@H](CCC(N)=O)NC(=O)[C@H](CC(=O)O)NC1=O)NC(=O)[C@H](CC1CCCCC1)NC(=O)[C@H](CC(N)=O)NC2=O` (stereo partly drawn) [I-1929, Ac-PL3-Asn-Cha-B5-Asp-Gln-iPrLys-Ala-Phe-Asn-PyrS2-3cbmf-BztA-Hse-NH2] showed an IC50 ([1]; fluorescence polarization) of 74 nM and an IC50 [2] greater than 20000 nM.
With `CC(=O)N1CCC[C@]12CC=CCCCC1(CCCC=CCCCOC(=O)N3CC[C@@](C(=O)N[C@@H](Cc4ccccc4)C(=O)N[C@@H](Cc4csc5ccccc45)C(=O)N[C@@H](CCO)C(N)=O)(C3)NC(=O)[C@H](CC(N)=O)NC(=O)[C@H](Cc3ccccc3)NC(=O)[C@H](C)NC(=O)[C@H](CCCCNC(C)C)NC(=O)[C@H](CCC(N)=O)NC(=O)[C@H](CC(=O)O)NC1=O)NC(=O)[C@H](CC1CCCCC1)NC(=O)[C@H](CC(N)=O)NC2=O` (stereo partly drawn) [I-2167, Ac-PL3-Asn-Cha-B5-Asp-Gln-iPrLys-Ala-Phe-Asn-PyrS2-Phe-BztA-Hse-NH2] the IC50 ([1]; fluorescence polarization) was 199 nM and the IC50 [2] was greater than 20000 nM.
`CC(=O)N1CCC[C@]12CC=CCCCC1(CCCC=CCCCCCC[C@@](C)(C(=O)N[C@@H](Cc3ccccc3)C(=O)N[C@@H](Cc3csc4ccccc34)C(=O)N[C@@H](CCC(N)=O)C(N)=O)NC(=O)[C@H](CCO)NC(=O)[C@H](Cc3ccccc3)NC(=O)[C@H](C)NC(=O)[C@H](C)NC(=O)[C@H](CCC(=O)O)NC(=O)[C@H](CC(=O)O)NC1=O)NC(=O)[C@H](CC(N)=O)NC(=O)[C@H](CC(=O)O)NC2=O` (stereo partly drawn) [I-1534, Ac-PL3-Asp-Asn-B5-Asp-Glu-Ala-Ala-Phe-Hse-S8-Phe-BztA-Gln-NH2] gave an IC50 ([1]; fluorescence polarization) of 181 nM and an IC50 ([2]; absolute IC50) greater than 20000 nM.
